Data from patent publication US20230085307A1, “PYRIDAZINONE COMPOUND AND HERBICIDE” (NISSAN CHEMICAL CORPORATION, priority 2019, published 2023).

Columns and labels:
barnyard grass [1] = assay: Test Example 4: herbicidal effect by soil treatment (Table 19, symbol H); format: in vivo, barnyard grass (Echinochloa crus-galli); conditions: amount of applied herbicide 320 g/ha
Outline: (§1)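 Seeds were sown in sterilized diluvial soil and covered with about 1.5 cm of soil. An emulsion formulation diluted with water to a predetermined herbicide amount was sprayed evenly onto the soil surface. Plants grew in a greenhouse at 25° C. to 30° C., and the effect was scored three weeks after application using criteria from an earlier test.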

Chinese sprangletop = assay: Test Example 3: herbicidal effect by foliage application, Wagner pot (Table 18, symbol D); format: in vivo, chinese sprangletop (Leptochloa chinensis)
Outline: (§2)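 Plants were sown in alluvial soil held under 0.1–0.5 cm standing water and grown 14 days in a greenhouse at 25–30 °C. An emulsifiable formulation, water-diluted to the set dose, was then sprayed onto the foliage, and effects were scored three weeks later using previously defined criteria.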

chickweed [2] = assay: Test Example 4: herbicidal effect by soil treatment (Table 19, symbol P); format: in vivo, common chickweed (Stellaria media); conditions: amount of applied herbicide 320 g/ha
Outline: as §1

windgrass [3] = assay: Test Example 5: herbicidal effect by foliage application, plastic box (Table 20, symbol L); format: in vivo, windgrass (Apera spica-venti); conditions: foliage application, 320 g/ha, three weeks after application
Outline: (§3)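 Plants sown in sterilized diluvial soil and grown 14 days in a greenhouse at 25° C to 30° C, then sprayed on the foliage with the compound's emulsion diluted in water to a predetermined herbicide amount. Injury to weeds and crops scored three weeks after application on a visual rating scale.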

wild oat [4] = assay: Test Example 4: herbicidal effect by soil treatment (Table 19, symbol I); format: in vivo, wild oat (Avena fatua); conditions: amount of applied herbicide 320 g/ha
Outline: as §1

Japanese bulrush = assay: Test Example 1: herbicidal activity, application before weed generation under submerged conditions (Table 16, symbol B); format: in vivo, Japanese bulrush (Schoenoplectus juncoides); conditions: amount of applied herbicide 320 g/ha
Outline: (§4)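 Alluvial soil was flooded to 4 cm depth, weed seeds were sown mixed and 2.5-leaf rice seedlings were transplanted. On sowing day, the compound's emulsion, diluted in water to a set dose, was applied to the water surface. Plants grew at 25–30 °C and were scored 0–5 after three weeks.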

lambsquarters [5] = assay: Test Example 4: herbicidal effect by soil treatment (Table 19, symbol O); format: in vivo, lambsquarters (Chenopodium album); conditions: amount of applied herbicide 320 g/ha
Outline: as §1

southern crabgrass [6] = assay: Test Example 5: herbicidal effect by foliage application, plastic box (Table 20, symbol F); format: in vivo, southern crabgrass (Digitaria ciliaris); conditions: foliage application, 320 g/ha, three weeks after application
Outline: as §3

oval-leafed pondweed = assay: Test Example 1: herbicidal activity, application before weed generation under submerged conditions (Table 16, symbol C); format: in vivo, oval-leafed pondweed (Monochoria vaginalis); conditions: amount of applied herbicide 320 g/ha
Outline: as §4

green foxtail [7] = assay: Test Example 4: herbicidal effect by soil treatment (Table 19, symbol G); format: in vivo, green foxtail (Setaria viridis); conditions: amount of applied herbicide 320 g/ha
Outline: as §1

Italian ryegrass [8] = assay: Test Example 4: herbicidal effect by soil treatment (Table 19, symbol K); format: in vivo, Italian ryegrass (Lolium multiflorum); conditions: amount of applied herbicide 320 g/ha
Outline: as §1

barnyard grass [9] = assay: Test Example 5: herbicidal effect by foliage application, plastic box (Table 20, symbol H); format: in vivo, barnyard grass (Echinochloa crus-galli); conditions: foliage application, 320 g/ha, three weeks after application
Outline: as §3

persian speedwell [10] = assay: Test Example 4: herbicidal effect by soil treatment (Table 19, symbol R); format: in vivo, Persian speedwell (Veronica persica); conditions: amount of applied herbicide 320 g/ha
Outline: as §1

redroot pigweed [11] = assay: Test Example 4: herbicidal effect by soil treatment (Table 19, symbol N); format: in vivo, redroot pigweed (Amaranthus retroflexus); conditions: amount of applied herbicide 320 g/ha
Outline: as §1

velvetleaf [12] = assay: Test Example 4: herbicidal effect by soil treatment (Table 19, symbol M); format: in vivo, velvetleaf (Abutilon theophrasti); conditions: amount of applied herbicide 320 g/ha
Outline: as §1

late watergrass = assay: Test Example 1: herbicidal activity, application before weed generation under submerged conditions (Table 16, symbol A); format: in vivo, late watergrass (Echinochloa oryzicola); conditions: amount of applied herbicide 320 g/ha
Outline: as §4

lambsquarters [13] = assay: Test Example 5: herbicidal effect by foliage application, plastic box (Table 20, symbol O); format: in vivo, lambsquarters (Chenopodium album); conditions: foliage application, 320 g/ha, three weeks after application
Outline: as §3

barnyard grass [14] = assay: Test Example 3: herbicidal effect by foliage application, Wagner pot (Table 18, symbol H); format: in vivo, barnyard grass (Echinochloa crus-galli)
Outline: as §2

southern crabgrass [15] = assay: Test Example 4: herbicidal effect by soil treatment (Table 19, symbol F); format: in vivo, southern crabgrass (Digitaria ciliaris); conditions: amount of applied herbicide 320 g/ha
Outline: as §1

blackgrass [16] = assay: Test Example 4: herbicidal effect by soil treatment (Table 19, symbol J); format: in vivo, blackgrass (Alopecurus myosuroides); conditions: amount of applied herbicide 320 g/ha
Outline: as §1

redroot pigweed [17] = assay: Test Example 5: herbicidal effect by foliage application, plastic box (Table 20, symbol N); format: in vivo, redroot pigweed (Amaranthus retroflexus); conditions: foliage application, 320 g/ha, three weeks after application
Outline: as §3

persian speedwell [18] = assay: Test Example 5: herbicidal effect by foliage application, plastic box (Table 20, symbol R); format: in vivo, Persian speedwell (Veronica persica); conditions: foliage application, 320 g/ha, three weeks after application
Outline: as §3

green foxtail [19] = assay: Test Example 5: herbicidal effect by foliage application, plastic box (Table 20, symbol G); format: in vivo, green foxtail (Setaria viridis); conditions: foliage application, 320 g/ha, three weeks after application
Outline: as §3

Italian ryegrass [20] = assay: Test Example 5: herbicidal effect by foliage application, plastic box (Table 20, symbol K); format: in vivo, Italian ryegrass (Lolium multiflorum); conditions: foliage application, 320 g/ha, three weeks after application
Outline: as §3

windgrass [21] = assay: Test Example 4: herbicidal effect by soil treatment (Table 19, symbol L); format: in vivo, windgrass (Apera spica-venti); conditions: amount of applied herbicide 320 g/ha
Outline: as §1

wild oat [22] = assay: Test Example 5: herbicidal effect by foliage application, plastic box (Table 20, symbol I); format: in vivo, wild oat (Avena fatua); conditions: foliage application, 320 g/ha, three weeks after application
Outline: as §3

velvetleaf [23] = assay: Test Example 5: herbicidal effect by foliage application, plastic box (Table 20, symbol M); format: in vivo, velvetleaf (Abutilon theophrasti); conditions: foliage application, 320 g/ha, three weeks after application
Outline: as §3

rice flat sedge = assay: Test Example 3: herbicidal effect by foliage application, Wagner pot (Table 18, symbol E); format: in vivo, rice flat sedge (Cyperus iria)
Outline: as §2

chickweed [24] = assay: Test Example 5: herbicidal effect by foliage application, plastic box (Table 20, symbol P); format: in vivo, common chickweed (Stellaria media); conditions: foliage application, 320 g/ha, three weeks after application
Outline: as §3

blackgrass [25] = assay: Test Example 5: herbicidal effect by foliage application, plastic box (Table 20, symbol J); format: in vivo, blackgrass (Alopecurus myosuroides); conditions: foliage application, 320 g/ha, three weeks after application
Outline: as §3

[26] = amount of applied herbicide 320 g/ha

SMILES	L: windgrass, herbicidal effect grade (windgrass [3])	Herbicidal effect, B: Japanese bulrush (Japanese bulrush)	F: southern crabgrass, herbicidal effect grade (southern crabgrass [6])	Herbicidal effect, C: oval-leafed pondweed (oval-leafed pondweed)	H: barnyard grass, herbicidal effect grade (barnyard grass [9])	Herbicidal effect, A: late watergrass (late watergrass)	O: lambsquarters, herbicidal effect grade (lambsquarters [13])	N: redroot pigweed, herbicidal effect grade (redroot pigweed [17])	R: persian speedwell, herbicidal effect grade (persian speedwell [18])	G: green foxtail, herbicidal effect grade (green foxtail [19])	K: Italian ryegrass, herbicidal effect grade (Italian ryegrass [20])	I: wild oat, herbicidal effect grade (wild oat [22])	M: velvetleaf, herbicidal effect grade (velvetleaf [23])	P: chickweed, herbicidal effect grade (chickweed [24])	J: blackgrass, herbicidal effect grade (blackgrass [25])	other results
CCCC(=O)Oc1c(CC)nn(C)c(=O)c1-c1c(-c2ccc(F)cc2)sc2ccc(F)cc12 [2-407]	0 (Herbicidal rate of 5% or less (almost no effect))	0 (Herbicidal rate of 5% or less (almost no effect))	0 (Herbicidal rate of 5% or less (almost no effect))	0 (Herbicidal rate of 5% or less (almost no effect))	3 (Herbicidal rate of 40% or more and less than 70%)	3 (Herbicidal rate of 40% or more and less than 70%)	3 (Herbicidal rate of 40% or more and less than 70%)	5 (Herbicidal rate of 90% or more (almost completely withered))	5 (Herbicidal rate of 90% or more (almost completely withered))	5 (Herbicidal rate of 90% or more (almost completely withered))	3 (Herbicidal rate of 40% or more and less than 70%)	0 (Herbicidal rate of 5% or less (almost no effect))	5 (Herbicidal rate of 90% or more (almost completely withered))	5 (Herbicidal rate of 90% or more (almost completely withered))	0 (Herbicidal rate of 5% or less (almost no effect))	herbicidal effect, H: barnyard grass (barnyard grass [1]): 0 (Herbicidal rate of 5% or less (almost no effect)); herbicidal effect on D: Chinese sprangletop (Chinese sprangletop; [26]): 4 (Herbicidal rate of 70% or more and less than 90%); herbicidal effect, P: chickweed (chickweed [2]): 1 (Herbicidal rate of 5% or more and less than 20%); herbicidal effect, I: wild oat (wild oat [4]): 0 (Herbicidal rate of 5% or less (almost no effect)); herbicidal effect, O: lambsquarters (lambsquarters [5]): 1 (Herbicidal rate of 5% or more and less than 20%); herbicidal effect, G: green foxtail (green foxtail [7]): 1 (Herbicidal rate of 5% or more and less than 20%); herbicidal effect, K: Italian ryegrass (Italian ryegrass [8]): 0 (Herbicidal rate of 5% or less (almost no effect)); herbicidal effect, R: persian speedwell (persian speedwell [10]): 0 (Herbicidal rate of 5% or less (almost no effect)); herbicidal effect, N: redroot pigweed (redroot pigweed [11]): 3 (Herbicidal rate of 40% or more and less than 70%); herbicidal effect, M: velvetleaf (velvetleaf [12]): 0 (Herbicidal rate of 5% or less (almost no effect)); herbicidal effect on H: barnyard grass (barnyard grass [14]; [26]): 5 (Herbicidal rate of 90% or more (almost completely withered)); herbicidal effect, F: southern crabgrass (southern crabgrass [15]): 0 (Herbicidal rate of 5% or less (almost no effect)); herbicidal effect, J: blackgrass (blackgrass [16]): 0 (Herbicidal rate of 5% or less (almost no effect)); herbicidal effect, L: windgrass (windgrass [21]): 0 (Herbicidal rate of 5% or less (almost no effect)); herbicidal effect on E: rice flat sedge (rice flat sedge; [26]): 4 (Herbicidal rate of 70% or more and less than 90%)
Cc1nn(C)c(=O)c(-c2c(-c3ccc(OC(C)C)cc3)sc3cc(Cl)ccc23)c1O [3-041]	0 (Herbicidal rate of 5% or less (almost no effect))	0 (Herbicidal rate of 5% or less (almost no effect))	0 (Herbicidal rate of 5% or less (almost no effect))	0 (Herbicidal rate of 5% or less (almost no effect))	0 (Herbicidal rate of 5% or less (almost no effect))	2 (Herbicidal rate of 20% or more and less than 40%)	1 (Herbicidal rate of 5% or more and less than 20%)	2 (Herbicidal rate of 20% or more and less than 40%)	5 (Herbicidal rate of 90% or more (almost completely withered))	0 (Herbicidal rate of 5% or less (almost no effect))	0 (Herbicidal rate of 5% or less (almost no effect))	0 (Herbicidal rate of 5% or less (almost no effect))	0 (Herbicidal rate of 5% or less (almost no effect))	3 (Herbicidal rate of 40% or more and less than 70%)	0 (Herbicidal rate of 5% or less (almost no effect))	H: barnyard grass, herbicidal effect grade (barnyard grass [1]): 0 (Herbicidal rate of 5% or less (almost no effect)); herbicidal effect on Chinese sprangletop (D) (Chinese sprangletop; 320 g/ha): 0 (Herbicidal rate of 5% or less (almost no effect)); P: chickweed, herbicidal effect grade (chickweed [2]): 1 (Herbicidal rate of 5% or more and less than 20%); I: wild oat, herbicidal effect grade (wild oat [4]): 0 (Herbicidal rate of 5% or less (almost no effect)); O: lambsquarters, herbicidal effect grade (lambsquarters [5]): 0 (Herbicidal rate of 5% or less (almost no effect)); G: green foxtail, herbicidal effect grade (green foxtail [7]): 0 (Herbicidal rate of 5% or less (almost no effect)); K: Italian ryegrass, herbicidal effect grade (Italian ryegrass [8]): 0 (Herbicidal rate of 5% or less (almost no effect)); R: persian speedwell, herbicidal effect grade (persian speedwell [10]): 2 (Herbicidal rate of 20% or more and less than 40%); N: redroot pigweed, herbicidal effect grade (redroot pigweed [11]): 0 (Herbicidal rate of 5% or less (almost no effect)); M: velvetleaf, herbicidal effect grade (velvetleaf [12]): 0 (Herbicidal rate of 5% or less (almost no effect)); herbicidal effect on barnyard grass (H) (barnyard grass [14]; 320 g/ha): 2 (Herbicidal rate of 20% or more and less than 40%); F: southern crabgrass, herbicidal effect grade (southern crabgrass [15]): 0 (Herbicidal rate of 5% or less (almost no effect)); J: blackgrass, herbicidal effect grade (blackgrass [16]): 0 (Herbicidal rate of 5% or less (almost no effect)); L: windgrass, herbicidal effect grade (windgrass [21]): 0 (Herbicidal rate of 5% or less (almost no effect)); herbicidal effect on rice flat sedge (E) (rice flat sedge; 320 g/ha): 1 (Herbicidal rate of 5% or more and less than 20%)
